Assay results published in patent publication US4214095A, “Chlorobenzyl phenoxy alkoxylates” (Siegfried Aktiengesellschaft, priority 1979, dated 1980).
Counter-ions that a name gives are not always drawn. Like-named read-outs stand apart in the source and are kept apart here.

Assays:
[1] = Acute oral toxicity (LD50) in mice; format: in vivo; details: mouse, in vivo
Method: (§1) The compounds of Examples I to VIII were tested to evaluate their pharmacological effectiveness. Specifically, their toxicity (LD50), cholesterol-lowering effectiveness (E1 D25) and their liver weight increasing activity (E2 D25) were tested on animals according to standard methods.
(§2) At least three different doses were tested for each LD50 value given and 10 animals were used for testing of each dose; five test animals were kept in one standard "Macrolon" cage. The test substance was administered as a suspension in aqueous (3-5% by weight) Gum Arabic via a probe into the stomach in quantities of 10 ml of the suspension per kilogram body weight. As is conventional, LD50 is that dose of the test substance in mg/kg body weight which causes death of 50% of the test animals within the observation period. Higher LD50 values indicate lower toxicity and vice versa.

[2] = system: cholesterol level in the blood serum; test: Cholesterol-lowering effectiveness (E1 D25) in rats; format: in vivo, male Whistar rats; details: for ED25: Rattus norvegicus, male Whistar rats, oral, daily, two weeks (5 + 5 days), vs control, read-out: E1 D25 (dose causing 25% reduction of average serum cholesterol level); for cholesterol lowering effectiveness (in words): conclusion from Table I
Method: as §1
(B) The effective dose E1 D25 is the amount of test substance in milligram per kilogram body weight of the test animals (male Whistar rats, 100-200 g body weight, eight to ten animals per dosis) that causes a 25% by weight reduction of the average cholesterol level in the blood serum of test animals that had received the test substance, compared with the cholesterol level in the blood serum of the control group. The test substances were administered orally via a probe in the manner set forth above for the LD50 toxicity, i.e. as suspension in aqueous Gum Arabic. Each test animal was administered daily with 10 ml of the suspension per kilogram body weight. The animals of the control group were administered daily with each 10 ml of the aqueous Gum Arabic per kilogram of body weight without the test substance. The daily dose was administered for 5 subsequent days, resumed after a two-day week-end interval and continued for 5 additional days. After a total test period of two weeks, both the test and the control animals were sacrificed and the blood serum was recovered from the bodies for analysis.
Cholesterol analysis of the serum recovered was carried out according to the standard method of M. Richterich (cf. Monography by M. Richterich, "Klinische Chemie," Verlag Karger, Basel/New York, 1965, p. 232) and the results were evaluated by means of a cholesterol level/dose diagram. The E1 D25 values were taken from the diagram thus obtained. Lower E1 D25 values indicate higher activity, and vice versa.

mice [3] = details: background section; cited from earlier work
mice [4] = test: Acute oral toxicity (LD50) in mice; format: in vivo; details: conclusion from Table I
Method: as §1, §2

[5] = system: liver weight/body weight ratio (relative liver weight); design: species or system male Whistar rats; details: rat, in vivo
Method: as §1
(C) The effective dose E2 D25 is the amount of test substance in milligram per kilogram body weight of the test animals (male Whistar rats, 100-200 g body weight, eight to ten animals per dose) that causes a 25% increase of the liver weight/body weight ratio (relative liver weight) of test animals that had received that test substance, compared with the liver weight/body weight ratio of the control group. Administration was effected substantially in the manner described above for E1 D25. The relative liver weight was determined from the bodies of the sacrificed animals and the control animals. The actual increase of the relative liver weight was evaluated graphically and the E2 D25 was obtained by interpolation from the graph.

[6] = mice, single oral dose, 7 days observation or longer, read-out: LD50

| Compound | LD50 at 168 h ([1]; po, read-out: LD50) [mg/kg] | ED25 [2] [mg/kg] | cholesterol lowering effectiveness (in words) [2] | other results |
| --- | --- | --- | --- | --- |
| CCOC(=O)C(C)(C)Oc1ccccc1Cc1ccc(Cl)cc1 [Example IV, ethyl 2-methyl-2-[o-(p'-chlorobenzyl)-phenoxy]propionate] | > 10000 | ~90 | – | – |
| CCOC(=O)C(C)Oc1ccccc1Cc1ccc(Cl)cc1 (stereo not drawn) [Example VII] | > 3000 | 100 | reduced cholesterol lowering effect | – |
| CCOC(=O)C(C)(CC)Oc1cccc(Cc2ccc(Cl)cc2)c1 (stereo not drawn) [Example VIII] | – | 40 | – | – |
| CCC(C)(Oc1ccccc1Cc1ccc(Cl)cc1)C(=O)OCc1cccnc1 (racemic) [Example III, D,L-2-methyl-2-[o-(p'-chlorobenzyl)-phenoxy]-butyric acid-(3-oxymethyl-pyridine)-ester hydrochloride] | > 3000 | ~10 | – | – |
| CCCC(C)(Oc1ccccc1Cc1ccc(Cl)cc1)C(=O)OCC (racemic) [Example II, ethyl D,L-2-methyl-2-[o-(p'-chlorobenzyl)-phenoxy]-valerate] | > 10000 | ~40 | – | – |
| CCOC(=O)C(C)(C)Oc1ccc(Cl)cc1 [Substance B, Ethyl p-chlorophenoxyisobutyrate, reference compound] | – | 151 | – | LD50 at 168 h [1, 6]: 2350 mg/kg; toxicity (in words) (mice [3]): relatively high toxicity |
| CC(C)(Oc1ccccc1Cc1ccc(Cl)cc1)C(=O)OCc1cccnc1 [Example V, 2-methyl-2-[o-(p'-chlorobenzyl)-phenoxy]-propionic acid-(3-oxymethyl-pyridine)-ester hydrochloride] | – | – | – | LD50 at 168 h [1, 6]: > 3000 mg/kg |
| CCOC(=O)COc1ccccc1Cc1ccc(Cl)cc1 [Example VI] | 3000 | 300 | reduced cholesterol lowering effect | – |
| CCOC(=O)C(C)(CC)Oc1ccc(Cc2ccc(Cl)cc2)cc1 (stereo not drawn) [Substance A, ethyl ester of 2methyl-2-4(4chlorobenzyl)-phenoxy-butyric acid, reference compound] | – | 12.1 | – | LD50 at 168 h ([1]; po): 8000 mg/kg |
| CCOC(=O)C(C)(CC)Oc1ccccc1Cc1ccc(Cl)cc1 (racemic) [Example I, ethyl D,L-2-methyl-2-[o-(p'-chlorobenzyl)-phenoxy]butyrate] | > 10000 | ~10 | high cholesterol lowering effectiveness | toxicity (in words) (mice [4]): low toxicity; liver enlargement activities (in words) [5]: low or very low liver enlargement activities |
